This test relates to MDA-MB-231. The experiment in a line: Whole-cell gold uptake by ICP-OES. The class given is cell-based. As to conditions: MDA-MB-231, 5 μM, 24 h. The protocol: We next performed cellular uptake studies to determine what percentage of the compounds were getting into the cell after treatment. Given that most therapeutic targets are localized receptors on the plasma membrane, quantifying the amount of gold compounds in cellular fractions and investigating their mode of uptake is crucial. For whole-cell uptake studies, MDA-MB-231 were treated with all 10 compounds and Auranofin at 5 μM for 24 h (Fig. 5A). Auranofin is the only gold-based therapeutic to be clinically approved, therefor we used this drug as a benchmark for comparison.[67] After treatment, the cells were washed with PBS, centrifuged, and digested with 0.5 mL of conc. […] Given that these complexes readily react with nucleophilic biological molecules and the lack of accumulation in the nuclear fraction, it is evident that the mechanism of action of this class of compounds is differentiated from the clinically available platinum agents. […]
positive control. When ready for analysis, the media were removed and the wells washed with 5 mL of PBS. […] The cells were resuspended in 2 mL of fresh media, counted, and reconstituted to a concentration of 1 x 10^5 cells/mL. […]
Compound 2a was prepared as a stock in DMSO and added to the respective wells at the specified concentrations of 0.1, 1, and 10 µM and treated for 12 h. […] The samples were cooled and stored at −20 °C until ready for use. […]

The compound `C[N+](C)=C1[S][Au-2]2([S]1)[c]1ccccc1C(=O)c1cccc[n+]12.F[P-](F)(F)(F)(F)F` (centres unmarked) [1a] yielded an Intracellular uptake of 3017 pmol per million cells.
For `C[N+](C)=C1[S][Au-2]2([S]1)[c]1ccccc1Cc1cccc[n+]12.F[P-](F)(F)(F)(F)F` (centres unmarked) [2a] the value was 3267 pmol per million cells.

For the origin of these results see article PMC8162438, “Cancer cell-selective modulation of mitochondrial respiration and metabolism by potent organogold(III) dithiocarbamates” (Chemical Science, 2020).
